Source: patent publication US6521661B1, “Cyclic peroxides as novel antifungal agents” (Harbor Branch Oceanographic Institution, Inc., priority 2000, dated 2003)
Values after ≈ are worked out from the molar mass of the structure shown.

Legend:
[1] = system: P388 murine leukemia; details: cited from earlier work
[2] = system: murine leukemia (P388) cells; details: cited from earlier work
[3] = system: Candida albicans; test: Antifungal microtiter broth assay; type: cell-based; details: 24 hours, 37° C., RPMI medium, scored visually
Experimental: Preparation of Stocks Cultures of Candida albicans. Freeze-dried C. albicans yeast stocks (ATCC 90028) were each resuspended in 1 mL sterile distilled, de-ionized water. Slants were made with five mL of MPG agar (2% (w/v) malt extract, 2% (w/v) glucose, 0.1% (w/v) bacto-peptone, 1.5% (w/v) agar) in 16×125 mm disposable glass culture tubes, inoculated with approximately […] of the above cell suspension, incubated at 25° C. for 7 days and then frozen at −80° C. To prepare glycerol stocks, a slant was thawed and the yeast cells were resuspended in 5 mL sterile distilled, de-ionized water. This 5 mL cell suspension was used to inoculate 50 mL of Sabouraud Dextrose Broth (3% (w/v) [Gibco]) in a 250 mL Ehrlenmeyer flask and was incubated 18-24 hours at 37° C., 180 rpm. Fifty milliliters of Sabouraud Dextrose Broth in a 250 mL Ehrlenmeyer flask were inoculated with 1×10^7 cells per mL of the previous culture and grown under the same conditions. After 18-24 hours, sufficient glycerol was added to this culture to make a 10% (v/v) solution (final concentration). This solution was aliquoted in 1 mL portions, frozen on dry ice, and stored at −50° C. A thawed glycerol stock was used to inoculate 50 mL Sabouraud's Dextrose Broth in a 250 mL Ehrlenmeyer flask and grown for 18-24 hours, at 37° C., 180 rpm. This culture was used to inoculate 96-well microtiter plates [Nunc] at 2×10^3 cells per 200 μL per well in liquid RPMI medium (RPMI-1640 [Gibco], 0.165 M MOPS, pH 7.0).
(§1) Each well of a 96-well microtiter plate contained 200 μL of inoculum of C. albicans or A. fumigatus and 0.1 to 125 μg/mL of marine extract in DMSO. Controls for each assay were 0.025 to 16 μg/mL of amphotericin B, and 2 μL of DMSO. Culture plates were incubated for 24 or 48 hours (for C. albicans and A. fumigatus respectively) at 37° C., 120 rpm and scored visually using a light microscope. […] Percent inhibition was estimated. The Minimum Inhibitory Concentration was determined. Samples were considered active if they inhibited 50% or more growth.

[4] = system: Aspergillus fumigatus; test: Antifungal microtiter broth assay; type: cell-based; details: 48 hours, 37° C., RPMI medium, scored visually
Experimental: Preparation of Stock Cultures of Aspergillus fumigatus. Freeze-dried A. fumigatus stocks (ATCC 16424) were resuspended in 1 mL sterile distilled, de-ionized water. Slants were made with five mL of MPG agar (2% (w/v) malt extract, 2% (w/v) glucose, 0.1% (w/v) bacto-peptone, 1.5% (w/v) agar) in 16×125 mm disposable glass culture tubes, inoculated with approximately 50 μL of the above cell suspension, incubated at 25° C. for 7 days and then frozen at −80° C. To prepare glycerol stocks, a slant was thawed and conidia were resuspended in 5 mL sterile distilled, de-ionized water. Two hundred mL of MPG agar (2% (w/v) malt extract, 2% (w/v) glucose, 0.1% (w/v) bacto-peptone, 1.5% (w/v) agar) in a 1000 mL Ehrlenmeyer flask were inoculated with this 5 mL cell suspension, incubated 5-7 days at 37° C., and then frozen at −20° C. This flask was thawed and conidia were resuspended in 20 mL of sterile distilled, de-ionized water. Sufficient glycerol was added to this 20 mL suspension to make a 10% (v/v) solution (final concentration). This solution was aliquoted in 1 mL portions, frozen on dry ice, and stored at −50° C. A thawed glycerol stock was used to inoculate 96-well microtiter plates at 2×10^4 conidia per 200 μL per well in liquid RPMI medium (RPMI-1640 [Gibco], 0.165 M MOPS, pH 7.0).
as §1

[5] = target: T1, cdc25a (Homo sapiens, UniProt P30304); details: cited from earlier work
T1 sequence (P30304 1-524): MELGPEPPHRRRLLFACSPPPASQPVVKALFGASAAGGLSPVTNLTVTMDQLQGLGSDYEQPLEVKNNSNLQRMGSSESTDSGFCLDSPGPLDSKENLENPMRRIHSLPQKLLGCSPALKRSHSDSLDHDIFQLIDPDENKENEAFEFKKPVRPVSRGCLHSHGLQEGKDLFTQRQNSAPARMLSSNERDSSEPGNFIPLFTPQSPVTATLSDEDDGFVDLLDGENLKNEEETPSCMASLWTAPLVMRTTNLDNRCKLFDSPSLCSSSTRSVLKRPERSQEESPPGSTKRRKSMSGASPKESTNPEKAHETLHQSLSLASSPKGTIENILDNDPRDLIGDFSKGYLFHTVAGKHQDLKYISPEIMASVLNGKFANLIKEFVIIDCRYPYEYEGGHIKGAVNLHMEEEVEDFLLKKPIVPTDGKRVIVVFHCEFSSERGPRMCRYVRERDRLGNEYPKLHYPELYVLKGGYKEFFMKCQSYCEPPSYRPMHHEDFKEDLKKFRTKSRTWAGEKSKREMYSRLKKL

[6] = system: P. atrovenetum; details: at 100 mg/disk; cited from earlier work
[7] = system: S. cerevisiae; details: at 100 mg/disk; cited from earlier work
[8] = system: cardiac sarcoplasmic reticulum; details: cited from earlier work

Molecule | IC50 [3] | IC90 [3] | IC50 [4] | IC90 [4] | other results
CC/C=C/C(CC)CC(C)CC1(CC)C[C@H](CC)[C@H](CC(=O)O)OO1 (stereo partly shown) |  |  |  |  | IC50 against P388 murine leukemia [1]: 500 µg/mL (≈ 1410 µM)
COC(=O)C[C@@]1(C)C[C@](C)(CC(C)CCCCCCc2ccccc2)OO1 (stereo partly shown) [Epiplakinic acid E methyl ester] |  |  |  |  | Cytotoxicity against P388 cells [2]: Cytotoxicity
CC/C=C/C=C/C=C/CCCCCCCC[C@]1(C)C[C@](C)(CC(=O)O)OO1 [Peroxyacid 1] | 25 µg/mL (≈ 66 µM) | 25 µg/mL (≈ 66 µM) | 25 µg/mL (≈ 66 µM) | 25 µg/mL (≈ 66 µM) | 
CC/C=C/C=C/C=C/CCCCCCCC[C@]1(C)C[C@@](C)(CC(=O)O)OO1 [Peroxyacid 2] | 25 µg/mL (≈ 66 µM) | 25 µg/mL (≈ 66 µM) | 25 µg/mL (≈ 66 µM) | 25 µg/mL (≈ 66 µM) | 
CC(CCCCCC/C=C/C=C/c1ccccc1)C[C@]1(C)C[C@@](C)(CC(=O)O)OO1 (stereo partly shown) [Peroxyacid 3] | 31.2 µg/mL (≈ 75.3 µM) | 62.5 µg/mL (≈ 151 µM) | 62.5 µg/mL (≈ 151 µM) | 62.5 µg/mL (≈ 151 µM) | 
CC(CCCCCC/C=C/C=C/c1ccccc1)C[C@]1(C)C[C@](C)(CC(=O)O)OO1 (stereo partly shown) [Peroxyacid 4] | 31.2 µg/mL (≈ 75.3 µM) | 31.2 µg/mL (≈ 75.3 µM) | 31.2 µg/mL (≈ 75.3 µM) | 31.2 µg/mL (≈ 75.3 µM) | 
C[C@]1(CCCCCCCCCCc2ccccc2)C[C@](C)(CC(=O)O)OO1 [Peroxyacid 5, Epiplakinic Acid h] | 0.25 µg/mL (≈ 0.664 µM) | 0.25 µg/mL (≈ 0.664 µM) | 0.5 µg/mL (≈ 1.33 µM) | 0.5 µg/mL (≈ 1.33 µM) | Inhibition of the enzyme cdc25a [5]: inhibitor
CC/C=C/C(CC)C/C=C/[C@@]1(CC)C[C@H](CC)[C@@H](CC(=O)O)OO1 (stereo partly shown) [Peroxyacid 6] | 2 µg/mL (≈ 5.91 µM) | 3.9 µg/mL (≈ 11.5 µM) | 5.6 µg/mL (≈ 16.5 µM) | 5.6 µg/mL (≈ 16.5 µM) | 
CC(/C=C/c1ccccc1)C/C=C/C(C)CC1(C)CC(C)(CC(=O)O)OO1 (stereo not shown) [Plakinic acid A] |  |  |  |  | Antifungal activity vs. P. atrovenetum (zone) [6]: 25 mm; Antifungal activity vs. S. cerevisiae (zone) [7]: 24 mm
CC(/C=C/c1ccccc1)C/C=C/C(C)C[C@]1(C)C[C@H](C)[C@@H](CC(=O)O)OO1 (stereo partly shown) [Plakinic acid B] |  |  |  |  | Antifungal activity vs. P. atrovenetum (zone) [6]: 18 mm; Antifungal activity vs. S. cerevisiae (zone) [7]: 20 mm
CC/C=C/C(CC)CCC[C@@]1(CC)C[C@H](CC)[C@H](CC(=O)OC)OO1 (stereo partly shown) [Plakortide F] |  |  |  |  | Ca2+ uptake by the cardiac sarcoplasmic reticulum [8]: significantly enhanced
Plakortide G |  |  |  |  | Ca2+ uptake by the cardiac sarcoplasmic reticulum [8]: significantly enhanced
Plakortide H |  |  |  |  | Ca2+ uptake by the cardiac sarcoplasmic reticulum [8]: significantly enhanced
